Assay results as given in patent US20130052190A1, “CRTH2 Antagonists for Treatment of Eosinophilic Diseases and Conditions” (Oxagen Limited, priority 2011, published 2013).

Tests used:
[1] = tested on: patients with mild to moderate asthma; assay: 4 week study in patients with mild to moderate asthma (FEV1); format: in vivo, human; details: after 4 weeks, 100 mg twice daily
Method: 4 Week Study in Patients with Mild to Moderate Asthma
The study was a randomized, double blind, placebo controlled study of (5-fluoro-2-methyl-3-quinolin-2-ylmethyl-indol-1-yl)-acetic acid (OC000459) for 28 days in patients with mild to moderate asthma with a FEV1 of 60-80% of predicted and requiring only short acting inhaled β2 agonists for symptomatic control. The study compared patients taking 100 mg of OC000459 twice daily with patients taking a placebo twice daily. The study consisted of 112 patients with 53 patients taking OC000459 and 59 patients taking the placebo.
1. Males and females aged 18-55 years. 2. Asthma controlled by short-acting β2 agonists only. 3. Mild to moderate persistent asthma according to GINA4 guidelines for at least 12 months. 4. Non-smokers for at least the past 12 months with a pack history of less than 10 pack years. 5. History of asthma symptoms increasing in response to external allergens. 6. Testing positive on skin prick test to an allergen associated with the patient's allergen.
1. Receipt of prescribed or over-the-counter medication within 14 days prior to the first study day. 2. Use of inhaled or local corticosteroids in the period 28 days prior to screening.

[2] = tested on: patients with mild to moderate persistent asthma; assay: 12 week study in patients with mild to moderate persistent asthma (FEV1); format: in vivo, human; details: for FEV1 Improvement: 12 weeks, patient population on OC000459; for improvement in FEV1 over patients given the placebo / improvement in FEV1 over baseline: after 12 weeks
Method: 12 Week Study in Patients with Mild to Moderate Persistent Asthma
The study was a randomized, double blind, placebo controlled, four arm study of three dosage levels of (5-fluoro-2-methyl-3-quinolin-2-ylmethyl-indol-1-yl)-acetic acid (OC000459) tablets in patients with asthma controlled by β2 agonists alone. The study compared patients on OC000459 at three different dose levels (25 mg once daily, 100 mg twice daily, and 200 mg once daily) with patients on placebo after dosing for 12 weeks. The study consisted of 460 patients which yielded 440 evaluable results with 110 patients per arm. There was a screening period of 1 to 2 weeks, followed by placebo run-in for 3 weeks before the treatment period. There was a placebo wash-out for two weeks following the treatment period with a follow-up 3 to 5 weeks after the treatment period.
1. Males and females aged 18-55 years. 2. Asthma controlled by short-acting β2 agonists only. 3. Mild to moderate persistent asthma according to GINA4 guidelines for at least 12 months. 4. Non-smokers for at least the past 12 months with a pack history of less than 10 pack years.
Receipt of prescribed or over-the-counter medication within 14 days prior to the first study day.
1. Morning FEV1 of 60-85% of predicted. 2. Reversibility of ≧12% after salbutamol. 3. Greater than 1 puff per day of salbutamol required.

[3] = blood eosinophil count greater than or equal to 250/μL, FIG. 6(b)
[4] = full population (112 patients), FIG. 6(a)
[5] = FEV1 60-80% of predicted and positive skin prick test at baseline, FIG. 1
[6] = FEV1 60-80% of predicted, blood eosinophil count greater than or equal to 250/μL, positive skin prick test, FIG. 2

Cc1c(Cc2ccc3ccccc3n2)c2cc(F)ccc2n1CC(=O)O [OC000459, (5-fluoro-2-methyl-3-quinolin-2-ylmethyl-indol-1-yl)-acetic acid]
improvement in FEV1 over baseline [1, 3]: 250 mL | improvement in FEV1 over patients given the placebo [1, 3]: 180 mL | improvement in FEV1 over patients given the placebo ([1]; blood eosinophil count less than 250/μL, FIG. 6(c)): only a small improvement | improvement in FEV1 over baseline [1, 4]: 190 mL | improvement in FEV1 over patients given the placebo [1, 4]: 100 mL | FEV1 Improvement ([2]; 60-80% FEV1 Atopic): 130 mL | FEV1 Improvement ([2]; All-Comers): 100 mL | FEV1 Improvement ([2]; Hi-eosinophil count (>250/μL)): 188 mL | improvement in FEV1 over patients given the placebo ([2]; ACQ score greater than or equal to 1.5 at baseline, FIG. 4): 140 mL | improvement in FEV1 over patients given the placebo ([2]; ACQ score less than 1.5 at baseline, FIG. 5): 30 mL | improvement in FEV1 over baseline [2, 5]: 191 mL | improvement in FEV1 over patients given the placebo [2, 5]: 130 mL | improvement in FEV1 over baseline [2, 6]: 184 mL | improvement in FEV1 over patients given the placebo [2, 6]: 188 mL | improvement in FEV1 over patients given the placebo ([2]; FEV1 60-80% of predicted, blood eosinophil count less than 250/μL, positive skin prick test, FIG. 3): 76 mL
